Assays:
Type in all cases: in vivo
[1] = system: Galium (catchweed bedstraw, Galium aparine); test: Test A postemergence; conditions: Galium, post-emergence, 240 h, postemergence, read-out: Galium plant response rating
Outline: (§1)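 Seeded soil received test chemicals as a preemergence directed spray, and seedlings at one to two leaves, 2–10 cm tall, received them postemergence, in a non-phytotoxic, surfactant-containing solvent mixture. Pots were held in a greenhouse for approximately 10 d, then rated for injury from 0, no effect, to 100, complete control.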

[2] = system: ryegrass, Italian (Italian ryegrass, Lolium multiflorum); test: Test A postemergence; conditions: Lolium multiflorum, post-emergence, 240 h, postemergence, read-out: Ryegrass, Italian plant response rating
Outline: as §1

[3] = system: barnyardgrass (Echinochloa crus-galli); test: Test A postemergence; conditions: Echinochloa crus-galli, post-emergence, 240 h, postemergence, read-out: Barnyardgrass plant response rating
Outline: as §1

[4] = system: wheat (Triticum aestivum); test: Test A postemergence; conditions: Triticum aestivum, post-emergence, 240 h, postemergence, read-out: Wheat plant response rating
Outline: as §1

corn (Zea mays) = test: Test A postemergence; conditions: Zea mays, post-emergence, 240 h, postemergence, read-out: Corn plant response rating
Outline: as §1

[5] = system: ragweed (common ragweed, Ambrosia elatior); test: Test A postemergence; conditions: Ambrosia artemisiifolia, post-emergence, 240 h, postemergence, read-out: Ragweed plant response rating
Outline: as §1

[6] = system: blackgrass (Alopecurus myosuroides); test: Test A postemergence; conditions: Alopecurus myosuroides, post-emergence, 240 h, postemergence, read-out: Blackgrass plant response rating
Outline: as §1

[7] = system: giant foxtail (Setaria faberii); test: Test A postemergence; conditions: Setaria faberi, post-emergence, 240 h, postemergence, read-out: Foxtail, Giant plant response rating
Outline: as §1

[8] = system: pigweed (Amaranthus retroflexus); test: Test A postemergence; conditions: Amaranthus retroflexus, post-emergence, 240 h, postemergence, read-out: Pigweed plant response rating
Outline: as §1

[9] = system: ryegrass, Italian (Italian ryegrass, Lolium multiflorum); test: Test A preemergence; conditions: Lolium multiflorum, pre-emergence, 240 h, preemergence, 0 to 100 scale where 0 is no effect and 100 is complete control, read-out: Ryegrass, Italian plant response rating
Outline: as §1

Kochia (Kochia scoparia) = test: Test A preemergence; conditions: Bassia scoparia, pre-emergence, 240 h, preemergence, 0 to 100 scale where 0 is no effect and 100 is complete control, read-out: Kochia plant response rating
Outline: as §1

[10] = system: barnyardgrass (Echinochloa crus-galli); test: Test A preemergence; conditions: Echinochloa crus-galli, pre-emergence, 240 h, preemergence, read-out: Barnyardgrass plant response rating
Outline: as §1

[11] = system: ragweed (common ragweed, Ambrosia elatior); test: Test A preemergence; conditions: Ambrosia artemisiifolia, pre-emergence, 240 h, preemergence, 0 to 100 scale where 0 is no effect and 100 is complete control, read-out: Ragweed plant response rating
Outline: as §1

[12] = system: giant foxtail (Setaria faberii); test: Test A preemergence; conditions: Setaria faberi, pre-emergence, 240 h, preemergence, 0 to 100 scale where 0 is no effect and 100 is complete control, read-out: Foxtail, Giant plant response rating
Outline: as §1

[13] = system: pigweed (Amaranthus retroflexus); test: Test A preemergence; conditions: Amaranthus retroflexus, pre-emergence, 240 h, preemergence, 0 to 100 scale where 0 is no effect and 100 is complete control, read-out: Pigweed plant response rating
[14] = 125 g ai/ha, visual injury on 0 to 100 scale (0 no effect, 100 complete control), approx. 10 d
[15] = 500 g ai/ha, 0 to 100 scale, 0 is no effect, 100 is complete control

Question: Which pest or weed control at 125 g/ha [1, 14] does the source give for O=C1NC[C@H](c2cscn2)[C@H]1C(=O)Nc1cccc(F)c1F [Compound 1111] here?
Answer: 0%

Question: And the pest or weed control at 500 g/ha [1, 15]?
Answer: 0%

Question: What about the pest or weed control at 125 g/ha [2, 14] of the same compound?
Answer: 0%

Question: And the pest or weed control at 500 g/ha [2, 15]?
Answer: 0%

Question: What about the pest or weed control at 125 g/ha [3, 14] of the same compound?
Answer: 0%

Question: What about the pest or weed control at 500 g/ha [3, 15] of the same compound?
Answer: 0%

Question: What about the plant injury at 125 g/ha [4, 14] of the same compound?
Answer: 0%

Question: What about the plant injury at 500 g/ha [4, 15] of the same compound?
Answer: 0%

Question: What about the plant injury at 125 g/ha (corn (Zea mays); [14]) of the same compound?
Answer: 0%

Question: What about the plant injury at 500 g/ha (corn (Zea mays); [15]) of the same compound?
Answer: 0%

Question: And the pest or weed control at 125 g/ha [5, 14]?
Answer: 0%

Question: What about the pest or weed control at 500 g/ha [5, 15] of the same compound?
Answer: 0%

Question: What about the pest or weed control at 125 g/ha [6, 14] of the same compound?
Answer: 0%

Question: And the pest or weed control at 500 g/ha [6, 15]?
Answer: 0%

Question: What about the pest or weed control at 125 g/ha [7, 14] of the same compound?
Answer: 20%

Question: And the pest or weed control at 500 g/ha [7, 15]?
Answer: 50%

Question: And the pest or weed control at 125 g/ha [8, 14]?
Answer: 0%

Question: And the pest or weed control at 500 g/ha [8, 15]?
Answer: 0%

Question: What about the pest or weed control at 125 g/ha ([9]; 125 g ai/ha, approx. 10 d) of the same compound?
Answer: 0%

Question: And the pest or weed control at 500 g/ha ([9]; 500 g ai/ha)?
Answer: 20%

Question: And the pest or weed control at 125 g/ha (Kochia (Kochia scoparia); 125 g ai/ha, approx. 10 d)?
Answer: 0%

Question: What about the pest or weed control at 500 g/ha (Kochia (Kochia scoparia); 500 g ai/ha) of the same compound?
Answer: 0%

Question: And the pest or weed control at 125 g/ha ([10]; 125 g ai/ha, 0 to 100 scale where 0 is no effect and 100 is complete control, approx. 10 d)?
Answer: 0%

Question: And the pest or weed control at 500 g/ha ([10]; 500 g ai/ha, visual injury rating about 10 d after treatment, 0 to 100 scale (0 no effect, 100 complete control))?
Answer: 0%

Question: And the pest or weed control at 125 g/ha ([11]; 125 g ai/ha, approx. 10 d)?
Answer: 0%

Question: And the pest or weed control at 500 g/ha ([11]; 500 g ai/ha)?
Answer: 0%

Question: What about the pest or weed control at 125 g/ha ([12]; 125 g ai/ha, approx. 10 d) of the same compound?
Answer: 0%

Question: What about the pest or weed control at 500 g/ha ([12]; 500 g ai/ha) of the same compound?
Answer: 0%

Question: And the pest or weed control at 125 g/ha ([13]; 125 g ai/ha, approx. 10 d)?
Answer: 0%

Question: What about the pest or weed control at 500 g/ha ([13]; 500 g ai/ha) of the same compound?
Answer: 0%

— patent publication US12077503B2, “Substituted cyclic amides and their use as herbicides” (FMC CORPORATION, priority 2015, dated 2024)
